Test results reported in patent US20110039763A1, “TARGETED ANTIMICROBIAL MOIETIES” (C3 JIAN, INC., priority 2009, published 2011).
Entries after “also recorded” stand apart in the source; their conditions may differ.

Assays:
[1] = tested on: microorganisms; test: Peptide activities: targeting/binding, antimicrobial, growth or phenotype altering (Tables 7, 8); type: cell-based; details: peptides having multiple activities
[2] = tested on: microorganisms; test: Targeting peptide binding to target microorganisms (Tables 3, 10, 12); details: microorganism(s) the targeting peptide binds; binding in aqueous buffers varied with peptide solubility, preferably 1x PBS
[3] = tested on: microorganisms; test: Morphology, biofilm and growth disrupting peptides (Table 5); type: cell-based; design: key: A: Peptide aggregates; B: Less hyphal formation; Clumps; Diffuse clumps and small polyps; F: Diffuse growth; H: Thin; I: Growth inhibition; Microcolony formation; Rippled; Small polyps; Thick; W: Halo formation on top, microlonies on bottom
Source text: In certain embodiments peptides that induce alterations in phenotype or other biological activities can also be used as antimicrobial effector moieties.

Row | Substance | Activities [1] | Target(s) [2] | Organism, effect ([3]; S. pneumoniae) | Organism, effect ([3]; E. faecalis) | Organism, effect ([3]; MRSA) | Organism, effect ([3]; S. epidermidis) | further results
1 | PF-408: peptide having multiple activities (chain 1 YCVPLGNMGNMNNKIW; chain 2 YCVPLGNMGNMNNKIW; Peptide with targeting and/or antimicrobial activity) | G B | S. epidermidis and E. coli and P. aeruginosa and MRSA and E. faecalis and C. jeikeium and C. jejuni | – | – | – | – | Organism, effect: MRSA ([3]; MRSA): MRSA (M); Organism, effect: S. epidermidis ([3]; S. epidermidis): S. epidermidis (M)
2 | PF-413: peptide having multiple activities (chain 1 TFAGSIKIGVPDLVHVTFNCKR; chain 2 TFAGSIKIGVPDLVHVTFNCKR; Peptide with targeting and/or antimicrobial activity) | G B | P. aeruginosa; also recorded: C. albicans; also recorded: C. jejuni | – | – | – | – | Organism, effect: E. coli ([3]; E. coli): E. coli (S); Organism, effect: MRSA ([3]; MRSA): MRSA (C); Organism, effect: S. epidermidis ([3]; S. epidermidis): S. epidermidis (C)
3 | PF-414: peptide having multiple activities (chain 1 LLNKKLE; chain 2 LLNKKLE; Peptide with targeting and/or antimicrobial activity) | G B | E. coli; also recorded: C. albicans; also recorded: C. jeikeium | – | – | – | – | Organism, effect: S. pneumoniae ([3]; S. pneumoniae): S. pneumoniae (H)
4 | PF-416: peptide having multiple activities (chain 1 SKAGLYGKIERSDKRE; chain 2 SKAGLYGKIERSDKRE; Peptide with targeting and/or antimicrobial activity) | G B | S. pneumoniae; also recorded: C. jeikeium | – | – | – | – | Organism, effect: S. pneumoniae ([3]; S. pneumoniae): S. pneumoniae (H)
5 | PF-417: peptide having multiple activities (chain 1 DSYFRS; chain 2 DSYFRS; Peptide with targeting and/or antimicrobial activity) | G B | S. epidermidis; also recorded: C. jeikeium; also recorded: C. jejuni | – | – | – | – | Organism, effect: MRSA ([3]; MRSA): MRSA (M); Organism, effect: S. epidermidis ([3]; S. epidermidis): S. epidermidis (M); Organism, effect: S. pneumoniae ([3]; S. pneumoniae): S. pneumoniae (M)
6 | PF-421: peptide having multiple activities (chain 1 KHCFEITDKTDVV; chain 2 KHCFEITDKTDVV; Peptide with targeting and/or antimicrobial activity) | G B | C. jeikeium | S. pneumoniae (H) | – | – | – | –
7 | PF-423: peptide having multiple activities (chain 1 AGKKERLLSFREQFLNKNKKK; chain 2 AGKKERLLSFREQFLNKNKKK; Peptide with targeting and/or antimicrobial activity) | G B | S. epidermidis; also recorded: M. luteus; also recorded: E. coli; also recorded: S. pneumoniae; also recorded: E. faecalis; also recorded: C. jeikeium | S. pneumoniae (H) | – | – | – | –
8 | PF-424: peptide having multiple activities (chain 1 IAAFVTSRAFSDTVSPI; chain 2 IAAFVTSRAFSDTVSPI; Peptide with targeting and/or antimicrobial activity) | G B | S. epidermidis and C. albicans and MRSA | S. pneumoniae (H) | – | – | – | –
9 | PF-425: peptide having multiple activities (chain 1 MMELVLKTIIGPIVVGVVLRIVDKWLNKDK; chain 2 MMELVLKTIIGPIVVGVVLRIVDKWLNKDK; Peptide with targeting and/or antimicrobial activity) | G B | S. epidermidis and M. luteus and E. coli and P. aeruginosa and C. albicans and MRSA and S. pneumoniae and C. jeikeium | S. pneumoniae (D) | E. faecalis (D) | MRSA (D) | S. epidermidis (D) | Organism, effect ([3]; C. albicans): C. albicans (A); Organism, effect ([3]; C. jejuni): C. jejuni (D); Organism, effect ([3]; E. coli): E. coli (C); Organism, effect ([3]; P. aeruginosa): P. aeruginosa (A)
10 | PF-426: peptide having multiple activities (chain 1 MLQKYTQMISVTKCIITKNKKTQENVDAYN; chain 2 MLQKYTQMISVTKCIITKNKKTQENVDAYN; Peptide with targeting and/or antimicrobial activity) | G B | S. epidermidis and E. coli and P. aeruginosa and C. albicans and MRSA and S. pneumoniae and E. faecalis and C. jeikeium | S. pneumoniae (D) | E. faecalis (D) | MRSA (D) | S. epidermidis (D) | Organism, effect ([3]; C. albicans): C. albicans (A); Organism, effect ([3]; C. jejuni): C. jejuni (D); Organism, effect ([3]; E. coli): E. coli (C)
11 | PF-427: peptide having multiple activities (chain 1 YVLEYHGLRATQDVDAFMAL; chain 2 YVLEYHGLRATQDVDAFMAL; Peptide with targeting and/or antimicrobial activity) | G B | M. luteus; also recorded: P. aeruginosa; also recorded: C. albicans; also recorded: C. jejuni | S. pneumoniae (R) | E. faecalis (C) | MRSA (C) | – | Organism, effect ([3]; E. coli): E. coli (C)
12 | PF-428: peptide having multiple activities (chain 1 ENEESIF; chain 2 ENEESIF; Peptide with targeting and/or antimicrobial activity) | G B | S. epidermidis; also recorded: C. albicans; also recorded: E. faecalis; also recorded: C. jeikeium | S. pneumoniae (H) | – | – | – | –
13 | PF-429: peptide having multiple activities (chain 1 AATLICVGSGIMSSL; chain 2 AATLICVGSGIMSSL; Peptide with targeting and/or antimicrobial activity) | G B | S. epidermidis; also recorded: S. pneumoniae; also recorded: C. jeikeium | S. pneumoniae (M) | E. faecalis (C) | MRSA (C) | S. epidermidis (C) | –
14 | PF-430: peptide having multiple activities (chain 1 AVVCGYLAYTATS; chain 2 AVVCGYLAYTATS; Peptide with targeting and/or antimicrobial activity) | G B | S. epidermidis; also recorded: M. luteus; also recorded: E. coli; also recorded: S. pneumoniae; also recorded: E. faecalis; also recorded: C. jeikeium; also recorded: C. jejuni | S. pneumoniae (M) | – | MRSA (M) | S. epidermidis (M) | –
15 | PF-433: peptide having multiple activities (chain 1 MRKEFHNVLSSGQLLADKRPARDYNRK; chain 2 MRKEFHNVLSSGQLLADKRPARDYNRK; Peptide with targeting and/or antimicrobial activity) | G B | S. epidermidis; also recorded: E. coli; also recorded: S. pneumoniae; also recorded: C. jeikeium | S. pneumoniae (H) | – | – | – | –
16 | PF-434: peptide having multiple activities (chain 1 GQLLADKRPARDYNRK; chain 2 GQLLADKRPARDYNRK; Peptide with targeting and/or antimicrobial activity) | G B | S. epidermidis; also recorded: M. luteus; also recorded: S. pneumoniae; also recorded: C. jeikeium | S. pneumoniae (S) | – | – | – | –
17 | PF-444: peptide having multiple activities (MAAKLWEEGKMVYASSASMTKRLKLAMSKV; Peptide with targeting and/or antimicrobial activity) | G B | M. luteus; also recorded: C. albicans; also recorded: S. pneumoniae; also recorded: C. jeikeium | S. pneumoniae (R) | E. faecalis (C) | MRSA (C) | S. epidermidis (C) | Organism, effect ([3]; E. coli): E. coli (R)
18 | PF-445: peptide having multiple activities (ASMTKRLKLAMSKV; Peptide with targeting and/or antimicrobial activity) | G B | M. luteus; also recorded: S. pneumoniae; also recorded: C. jeikeium | S. pneumoniae (M) | – | – | – | –
19 | PF-446: peptide having multiple activities (SGNEKV; Peptide with targeting and/or antimicrobial activity) | G B | M. luteus; also recorded: C. jeikeium | S. pneumoniae (H) | – | – | – | –
20 | PF-447: peptide having multiple activities (IDKSRNKDQFSHIFGLYNICSG; Peptide with targeting and/or antimicrobial activity) | G B | S. epidermidis; also recorded: M. luteus; also recorded: E. coli; also recorded: S. pneumoniae | S. pneumoniae (C) | E. faecalis (C) | MRSA (C) | S. epidermidis (C) | –
21 | PF-452: peptide having multiple activities (MNNWIKVAQISVTVINEVIDIMKEKQNGGK; Peptide with targeting and/or antimicrobial activity) | G B | M. luteus; also recorded: P. aeruginosa; also recorded: C. albicans; also recorded: S. pneumoniae; also recorded: E. faecalis; also recorded: C. jeikeium; also recorded: M. smegmatis | S. pneumoniae (R) | E. faecalis (C) | MRSA (C) | S. epidermidis (C) | Organism, effect ([3]; E. coli): E. coli (C)
